Data reported in the supplement of paper PMC7017272.
± gives the standard deviation of the averaged measurements.

Legend:
Conditions in all cases: treatment time: 3 days
[1] = system: UT-SCC-24A; assay: relative IC50 (midpoint of the fitted curve; maximal inhibition may be below 50%); higher = less potent
Description: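 HNSCC cell lines (500 cells/well, 384-well) were cultured on plastic, on top of (2D) or embedded (3D) in Matrigel or human leiomyoma matrix Myogel (500 ug/mL; Myogel 3D mixed with rat collagen I). Cells were treated for 3 days with 5 ten-fold concentrations of each drug, and viability was read by CellTiter-Glo. Viability was normalised to DMSO (0% inhibition) and 100 uM benzethonium chloride (100% inhibition) controls and fitted with the FIMM DSRT pipeline to give IC50 (nM), maximal % inhibition and the drug sensitivity score (DSS). Suffixes _1/_2/_3 on drug names are replicates.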

[2] = system: UT-SCC-8; assay: relative IC50 (midpoint of the fitted curve; maximal inhibition may be below 50%); higher = less potent
How it was run: (§1)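 Using 384-well plates, 500 cells/well of HPV-negative HNSCC cell lines were grown on plastic, on 500 µg/mL Matrigel or Myogel coatings, or embedded in Matrigel or Myogel with rat collagen I. They were treated with compounds at five 10-fold concentrations for 3 days, and luminescence from CellTiter-Glo 2.0 was normalised to vehicle (0.1% DMSO) and cell-killing control wells. IC50, maximal inhibition and drug sensitivity score were derived from percent-inhibition dose–response curves in the FIMM pipeline.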

[3] = system: UT-SCC-14; assay: as above
How it was run: as §1

[4] = system: UT-SCC-28; assay: as above
How it was run: as §1

[5] = system: UT-SCC-81; assay: as above
How it was run: as §1

[6] = system: UT-SCC-106A; assay: as above
How it was run: as §1

[7] = system: UT-SCC-44; assay: as above
How it was run: as §1

[8] = system: UT-SCC-42B; assay: as above
How it was run: as §1

[9] = system: UT-SCC-73; assay: as above
How it was run: as §1

[10] = system: UT-SCC-24B; assay: as above
How it was run: as §1

[11] = system: UT-SCC-40; assay: as above
How it was run: as §1

[12] = system: UT-SCC-42A; assay: as above
How it was run: as §1

[13] = system: UT-SCC-8; assay: maximal % inhibition of viability relative to DMSO; higher = stronger effect
Description: (§2)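 HNSCC cell lines (500 cells/well, 384-well) were cultured on plastic, on top of (2D) or embedded (3D) in Matrigel or human leiomyoma matrix Myogel (500 ug/mL; Myogel 3D mixed with rat collagen I). Cells were treated for 3 days with 5 ten-fold concentrations of each drug, and viability was read by CellTiter-Glo. Viability was normalised to DMSO and benzethonium chloride controls and fitted with the FIMM DSRT pipeline to give IC50 (nM), maximal % inhibition and DSS. Suffixes _1/_2/_3 are replicates. Only inhibition-mode (IC50) fits are kept.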

[14] = system: UT-SCC-81; assay: as above
Description: as §2

[15] = system: UT-SCC-44; assay: as above
Description: as §2

[16] = system: UT-SCC-42B; assay: as above
Description: as §2

[17] = system: UT-SCC-73; assay: as above
Description: as §2

[18] = system: UT-SCC-24B; assay: as above
Description: as §2

[19] = system: UT-SCC-40; assay: as above
Description: as §2

[20] = system: UT-SCC-42A; assay: as above
Description: as §2

[21] = culture condition: embedded in Matrigel
[22] = culture condition: on top of Matrigel
[23] = culture condition: plastic 2D (no matrix)
[24] = culture condition: on top of Myogel
[25] = culture condition: embedded in Myogel + collagen I

CN(C)C/C=C/C(=O)Nc1cc2c(Nc3ccc(F)c(Cl)c3)ncnc2cc1O[C@H]1CCOC1 [Afatinib]
relative IC50 [1, 21]: 8.03 nM
relative IC50 [1, 22]: 9.88 nM
relative IC50 [1, 23]: 12.8 nM
relative IC50 [2, 21]: 19.7 nM
relative IC50 [2, 22]: 21 nM
relative IC50 [2, 23]: 21.6 nM
relative IC50 [3, 21]: 30.7 nM
relative IC50 [3, 22]: 39.6 nM
relative IC50 [3, 24]: 47.4 nM
relative IC50 [3, 23]: 40.8 nM
relative IC50 [4, 21]: > 989 nM
relative IC50 [4, 25]: > 989 nM
relative IC50 [5, 21]: 6.81 nM
relative IC50 [5, 22]: 15.3 nM
relative IC50 [5, 23]: 35.7 nM
relative IC50 [6, 21]: 8.12 nM
relative IC50 [6, 25]: > 989 nM
relative IC50 [6, 22]: 7.76 nM
relative IC50 [6, 23]: 11.7 nM
relative IC50 [7, 25]: > 989 nM
relative IC50 [7, 23]: > 989 nM
relative IC50 [8, 21]: 17.3 nM
relative IC50 [8, 22]: 17.7 nM
relative IC50 [8, 23]: 27.5 nM
relative IC50 [9, 21]: 32 nM
relative IC50 [10, 21]: 31.2 nM
relative IC50 [10, 22]: 23 nM
relative IC50 [10, 23]: 12.7 nM
relative IC50 [11, 21]: 21.3 nM
relative IC50 [11, 22]: 24.2 nM
relative IC50 [11, 23]: 33.1 nM
relative IC50 [12, 21]: 28.9 nM
relative IC50 [12, 22]: 11.4 nM
relative IC50 [12, 24]: 21.2 nM
relative IC50 [12, 23]: 19 nM
maximal % inhibition of viability [13, 21]: 96.67 ± 0.42%
maximal % inhibition of viability [13, 25]: 22.4 ± 19%
maximal % inhibition of viability [13, 22]: 94.3 ± 0.36%
maximal % inhibition of viability [13, 24]: 45.4 ± 12%
maximal % inhibition of viability [13, 23]: 90.7 ± 1.6%
maximal % inhibition of viability [14, 21]: 88.3 ± 2.3%
maximal % inhibition of viability [14, 25]: 33.4 ± 37%
maximal % inhibition of viability [14, 22]: 83.3 ± 2.2%
maximal % inhibition of viability [14, 24]: 23 ± 7.8%
maximal % inhibition of viability [14, 23]: 71.2 ± 5%
maximal % inhibition of viability [15, 21]: 7.03 ± 6.5%
maximal % inhibition of viability [15, 25]: 1 ± 1.7%
maximal % inhibition of viability [15, 22]: 9.97 ± 9.3%
maximal % inhibition of viability [15, 24]: 9.63 ± 7.3%
maximal % inhibition of viability [15, 23]: 4.6 ± 5.6%
maximal % inhibition of viability [16, 21]: 73.7 ± 4.9%
maximal % inhibition of viability [16, 22]: 54.4 ± 3.4%
maximal % inhibition of viability [16, 24]: 9.53 ± 0.45%
maximal % inhibition of viability [16, 23]: 37.8 ± 4.5%
maximal % inhibition of viability [17, 21]: 20.2 ± 7.8%
maximal % inhibition of viability [17, 25]: 25.6 ± 22%
maximal % inhibition of viability [17, 22]: 17.1 ± 3.4%
maximal % inhibition of viability [17, 24]: 11.5 ± 7.3%
maximal % inhibition of viability [17, 23]: 16.7 ± 4.8%
maximal % inhibition of viability [18, 21]: 63.2 ± 3%
maximal % inhibition of viability [18, 25]: 37.8 ± 14%
maximal % inhibition of viability [18, 22]: 56.5 ± 1.6%
maximal % inhibition of viability [18, 24]: 21.4 ± 3.8%
maximal % inhibition of viability [18, 23]: 71.4 ± 3.5%
maximal % inhibition of viability [19, 21]: 80.3 ± 2.6%
maximal % inhibition of viability [19, 25]: 26.2 ± 14%
maximal % inhibition of viability [19, 22]: 74.2 ± 2.8%
maximal % inhibition of viability [19, 24]: 22.6 ± 4.6%
maximal % inhibition of viability [19, 23]: 59.8 ± 7.3%
maximal % inhibition of viability [20, 21]: 51.6 ± 4%
maximal % inhibition of viability [20, 25]: 13.4 ± 9.6%
maximal % inhibition of viability [20, 22]: 54 ± 2.1%
maximal % inhibition of viability [20, 24]: 26.6 ± 1.1%
maximal % inhibition of viability [20, 23]: 50.7 ± 2.2%

Cc1c(CN2CCN(C(=O)[C@H](C)O)CC2)sc2c(N3CCOCC3)nc(-c3cnc(N)nc3)nc12 [Apitolisib]
relative IC50 [1, 21]: 577 nM
relative IC50 [1, 25]: 436 nM
relative IC50 [1, 22]: 483 nM
relative IC50 [1, 24]: 818 nM
relative IC50 [1, 23]: 416 nM
relative IC50 [2, 21]: 1330 nM
relative IC50 [2, 25]: 2370 nM
relative IC50 [2, 22]: 1380 nM
relative IC50 [2, 24]: 1280 nM
relative IC50 [2, 23]: 1410 nM
relative IC50 [3, 21]: 1210 nM
relative IC50 [3, 25]: 1810 nM
relative IC50 [3, 22]: 1510 nM
relative IC50 [3, 24]: 1930 nM
relative IC50 [3, 23]: 2000 nM
relative IC50 [4, 21]: 330 nM
relative IC50 [4, 25]: 1050 nM
relative IC50 [4, 22]: 244 nM
relative IC50 [4, 23]: 352 nM
relative IC50 [5, 21]: 396 nM
relative IC50 [5, 25]: 748 nM
relative IC50 [5, 22]: 1300 nM
relative IC50 [5, 24]: 1040 nM
relative IC50 [5, 23]: 1140 nM
relative IC50 [6, 21]: 336 nM
relative IC50 [6, 25]: 862 nM
relative IC50 [6, 22]: 488 nM
relative IC50 [6, 24]: 1470 nM
relative IC50 [6, 23]: 936 nM
relative IC50 [7, 21]: 279 nM
relative IC50 [7, 25]: 1450 nM
relative IC50 [7, 22]: 452 nM
relative IC50 [7, 23]: 1130 nM
relative IC50 [8, 21]: 1900 nM
relative IC50 [8, 22]: 2320 nM
relative IC50 [8, 24]: 2160 nM
relative IC50 [8, 23]: 2390 nM
relative IC50 [9, 21]: 1110 nM
relative IC50 [9, 25]: 1170 nM
relative IC50 [9, 22]: 1450 nM
relative IC50 [9, 24]: 1540 nM
relative IC50 [9, 23]: 1670 nM
relative IC50 [10, 21]: 891 nM
relative IC50 [10, 25]: 736 nM
relative IC50 [10, 22]: 874 nM
relative IC50 [10, 24]: 1150 nM
relative IC50 [10, 23]: 850 nM
relative IC50 [11, 21]: 1240 nM
relative IC50 [11, 25]: 1560 nM
relative IC50 [11, 22]: 1520 nM
relative IC50 [11, 24]: 1870 nM
relative IC50 [11, 23]: 1820 nM
relative IC50 [12, 21]: 1510 nM
relative IC50 [12, 25]: 1110 nM
relative IC50 [12, 22]: 1320 nM
relative IC50 [12, 24]: 1410 nM
relative IC50 [12, 23]: 1090 nM
maximal % inhibition of viability [13, 21]: 97.57 ± 0.12%
maximal % inhibition of viability [13, 25]: 87.6 ± 4.4%
maximal % inhibition of viability [13, 22]: 94.8 ± 1.1%
maximal % inhibition of viability [13, 24]: 90.4 ± 1.6%
maximal % inhibition of viability [13, 23]: 94 ± 1.2%
maximal % inhibition of viability [14, 21]: 93.5 ± 1.6%
maximal % inhibition of viability [14, 25]: 81.1 ± 4.5%
maximal % inhibition of viability [14, 22]: 88.93 ± 0.85%
maximal % inhibition of viability [14, 24]: 79.9 ± 1.5%
maximal % inhibition of viability [14, 23]: 82.8 ± 3.6%
maximal % inhibition of viability [15, 21]: 57.8 ± 1.6%
maximal % inhibition of viability [15, 25]: 65.8 ± 3.9%
maximal % inhibition of viability [15, 22]: 58.2 ± 1.4%
maximal % inhibition of viability [15, 24]: 65.9 ± 2%
maximal % inhibition of viability [15, 23]: 63.5 ± 5%
maximal % inhibition of viability [16, 21]: 86.7 ± 1.6%
maximal % inhibition of viability [16, 22]: 76.3 ± 2.2%
maximal % inhibition of viability [16, 24]: 58.6 ± 2%
maximal % inhibition of viability [16, 23]: 64.5 ± 1.8%
maximal % inhibition of viability [17, 21]: 84.2 ± 2.6%
maximal % inhibition of viability [17, 25]: 76.2 ± 4.4%
maximal % inhibition of viability [17, 22]: 82.4 ± 0.53%
maximal % inhibition of viability [17, 24]: 79.5 ± 2.6%
maximal % inhibition of viability [17, 23]: 81.8 ± 2.3%
maximal % inhibition of viability [18, 21]: 91.37 ± 0.75%
maximal % inhibition of viability [18, 25]: 92.1 ± 2.7%
maximal % inhibition of viability [18, 22]: 90.4 ± 1.1%
maximal % inhibition of viability [18, 24]: 90.53 ± 0.42%
maximal % inhibition of viability [18, 23]: 92.97 ± 0.47%
maximal % inhibition of viability [19, 21]: 89.1 ± 2.1%
maximal % inhibition of viability [19, 25]: 78.6 ± 1.7%
maximal % inhibition of viability [19, 22]: 87.3 ± 1.2%
maximal % inhibition of viability [19, 24]: 64 ± 9.4%
maximal % inhibition of viability [19, 23]: 74.7 ± 2.4%
maximal % inhibition of viability [20, 21]: 79.9 ± 3.6%
maximal % inhibition of viability [20, 25]: 75.8 ± 1.8%
maximal % inhibition of viability [20, 22]: 80.1 ± 2.3%
maximal % inhibition of viability [20, 24]: 75.2 ± 1.4%
maximal % inhibition of viability [20, 23]: 81 ± 1.5%
